From patent US4837215A, “Penem derivatives” (Farmitalia Carlo Erba, priority 1985, dated 1989)
≈ marks a conversion by molar mass, not a printed value. Where two headings read alike, the source gives them in different places.

Columns and labels:
Format in all cases: cell-based
[1] = system: Citrobacter freundii ATCC 8090; test: Antibacterial in vitro activity (MIC), Citrobacter freundii ATCC 8090; details: ATCC8090
Text: (§1) Comparison between the antibacterial in vitro
(§2) activity (MIC, μg/ml) of compounds (1)
(§3) and (31) and a reference drug: Moxalactam

[2] = system: Streptococcus pyrogenes ATCC 12384; test: Antibacterial in vitro activity (MIC), Streptococcus pyrogenes ATCC 12384; details: ATCC12384
Text: as §1, §2, §3

[3] = system: Pseudomonas aeruginosa (6 strains); test: Antibacterial in vitro activity (MIC), Pseudomonas aeruginosa (6 strains)
Text: as §1, §2, §3

[4] = system: Shigella flexneri ATCC 11836; test: Antibacterial in vitro activity (MIC), Shigella flexneri ATCC 11836; details: ATCC11836
Text: as §1, §2, §3

[5] = system: Acinobacter; test: Antibacterial in vitro activity (MIC), Acinobacter
Text: as §1, §2, §3

[6] = system: Escherichia coli 026/B6 Cef R; test: Antibacterial in vitro activity (MIC), Escherichia coli 026/B6 Cef R; details: 026/B6CEFR
Text: as §1, §2, §3

[7] = system: Staphylococcus aureus Smith ATCC 13709; test: Antibacterial in vitro activity (MIC), Staphylococcus aureus Smith ATCC 13709; details: ATCC13709
Text: as §1, §2, §3

[8] = system: Enterobacter cloacae P 99 (β-lact.+); test: Antibacterial in vitro activity (MIC), Enterobacter cloacae P 99 (β-lact.+)
Text: as §1, §2, §3

[9] = system: Staphylococcus aureus 209 P; test: Antibacterial in vitro activity (MIC), Staphylococcus aureus 209 P
Text: as §1, §2, §3

[10] = system: Klebsiella aerogenes 1082E (β-lact.+); test: Antibacterial in vitro activity (MIC), Klebsiella aerogenes 1082E (β-lact.+)
Text: as §1, §2, §3

[11] = system: Escherichia coli B Cef. R (β-lact.+); test: Antibacterial in vitro activity (MIC), Escherichia coli B Cef. R (β-lact.+)
Text: as §1, §2, §3

[12] = Enterobacter cloacae P 99 (β-lact.+), read-out: MIC
[13] = Klebsiella aerogenes 1082E (β-lact.+), read-out: MIC
[14] = Escherichia coli B Cef. R (β-lact.+), read-out: MIC

C[C@@H](O)[C@H]1C(=O)N2C(C(=O)[O-])=C(SCC[n+]3ccccc3)S[C@H]12 [Compound 1, (5R,6S)-6-[(1R)-hydroxyethyl]-2-(2-pyridinioethylthio) penem-3-carboxylate]
MIC ([1]; Citrobacter freundii ATCC 8090, read-out: MIC): 0.78 µg/mL (≈ 2.21 µM)
MIC [2]: ≤ 0.005 µg/mL
MIC [3]: 9.92 µg/mL (≈ 28.1 µM)
MIC [4]: 0.39 µg/mL (≈ 1.11 µM)
MIC [5]: 0.78 µg/mL (≈ 2.21 µM)
MIC [6]: 0.39 µg/mL (≈ 1.11 µM)
MIC [7]: 0.222 µg/mL (≈ 0.63 µM)
MIC [8, 12]: 0.78 µg/mL (≈ 2.21 µM)
MIC [9]: 0.011 µg/mL (≈ 0.0312 µM)
MIC [10, 13]: 0.78 µg/mL (≈ 2.21 µM)
MIC [11, 14]: 0.78 µg/mL (≈ 2.21 µM)

C[C@@H](O)[C@H]1C(=O)N2C(C(=O)[O-])=C(Oc3ccc(C[n+]4ccccc4)cc3)S[C@H]12 [Compound 31]
MIC ([1]; Citrobacter freundii): 1.56 µg/mL (≈ 3.92 µM)
MIC [2]: 0.011 µg/mL (≈ 0.0276 µM)
MIC [4]: 1.56 µg/mL (≈ 3.92 µM)
MIC [6]: 0.78 µg/mL (≈ 1.96 µM)
MIC [7]: 0.045 µg/mL (≈ 0.113 µM)
MIC ([8]; Enterobacter cloacae): 1.56 µg/mL (≈ 3.92 µM)
MIC [9]: 0.022 µg/mL (≈ 0.0552 µM)
MIC ([10]; Klebsiella aerogenes): 1.56 µg/mL (≈ 3.92 µM)
MIC ([11]; Escherichia coli): 1.56 µg/mL (≈ 3.92 µM)

CO[C@@]1(NC(=O)C(C(=O)O)c2ccc(O)cc2)C(=O)N2C(C(=O)O)=C(CSc3nnnn3C)CO[C@@H]21 (stereo partly shown) [Moxalactam, reference compound]
MIC [2]: 2.5 µg/mL (≈ 4.8 µM)
MIC [4]: 0.15 µg/mL (≈ 0.288 µM)
MIC [6]: 2.5 µg/mL (≈ 4.8 µM)
MIC [7]: 0.31 µg/mL (≈ 0.596 µM)
MIC [8, 12]: 3.12 µg/mL (≈ 5.99 µM)
MIC [9]: 0.31 µg/mL (≈ 0.596 µM)
MIC [10, 13]: 0.78 µg/mL (≈ 1.5 µM)
MIC [11, 14]: 2.5 µg/mL (≈ 4.8 µM)
